According to patent publication US20160317560A1, “PARTICLES CONTAINING PHOSPHOLIPIDS OR BIOACTIVE FATTY ACIDS AND USES THEREOF” (THE UNIVERSITY OF NORTH CAROLINA AT CHAPEL HILL, priority 2013, published 2016):
“Also recorded” adds a separate entry of the source.

How the values were obtained:
[1] = test system: bone marrow derived mouse macrophages; test: Inflammasome activation in bone marrow derived mouse macrophages; assay type: cell-based; settings: 1 μm and 80×320 nm particles; soluble form at the same dose; FIG. 19
Source text: FIG. 19. Anti-inflammatory Programming Particles.
Disclosed herein are data showing emergent properties when bioactive fatty acids and phospholipids are delivered via the particles described herein. […] Other phospholipids and bioactive fatty acids could have similar properties when particulated as described herein.

[2] = test system: 2D2 T cells; test: Murine DC/T-cell co-culture (mouse dendritic cells and MOG-specific 2D2 T cells), T-cell activation and Treg induction; assay type: cell-based; settings: for IFN-γ production by T cells: in the presence of MOG antigen, 50 μM PS (FIG. 11A)
Source text: FIG. 5 depicts a murine model of multiple sclerosis (2D2) for evaluating T-cell activation in murine DC/T-cell co-culture.
FIG. 11A-B depicts programming regulatory T cells with phosphatidylserine Nanoparticles. A) Flow plots of 2D2 T cells after co-stimulation with bone-marrow derived dendritic cells+/−the MOG peptide. […] (*=p<0.05).
Using a co-culture model with mouse dendritic cells and 2D2 T cells specific for the MOG-peptide, Th1-skewed IFN-γ producing T cells were turned into FOXP3+, IL-10 producing T regulatory cells (FIGS. 10 and 11). In the absence of antigen, roughly 20% of all T cells were programmed into anti-inflammatory IL-10 producing FOXP3+ regulatory T cells. This was about a 10-15 fold increase as compared to blank PLGA particles controls. This was about 4-5 fold increase over the soluble PS control at the same dose. This is an exceptionally high % of T regulatory cells in any in vitro or in vivo system.
In the presence of soluble MOG antigen, about 10% of T cells produced IFN-γ in the blank 80×320 nm PLGA control group. […] The presence of antigen led to a 10% IL-10+, FOXP3+ T regulatory population in the presence of blank PLGA particles or soluble PS. PS-PLGA particles induced 2 fold higher levels of this regulatory T cell population, about 20% of all T cells.

[3] = test system: primary progressive multiple sclerosis; test: Murine model of primary progressive multiple sclerosis; assay type: in vivo; settings: 14 day study
Source text: FIG. 15 depicts a murine model of primary progressive multiple sclerosis. Reproduced from the Reeves Foundation. FIG. 16 provides data showing PS-loaded particles reduce MS symptoms. The study was 14 days to emphasize the suppression of the neuroinflammation ramp-up during the model.

Question: With `CCCCCCCC/C=C\CCCCCCCC(=O)O[C@H](COC(=O)CCCCCCCCCCCCCCCCC)COP(=O)(O)OC[C@H](N)C(=O)[O-].[Na+]` [PS SOL, Phosphatidylserine] as the compound, how does the “inflammasome activation / signaling” value [1] read?
Answer: exacerbated inflammation

Question: And the “FOXP3+ T cells” value ([2]; FIG. 11A, 50 μM PS)?
Answer: not seen

Question: What about the “IFN-γ production by T cells” value [2] of the same compound?
Answer: inhibit IFN-γ production

Question: And the “IFN-γ production by T cells” value ([2]; listed as soluble PS)?
Answer: inhibited to baseline levels; also recorded: can inhibit IFN-γ as well as particulate PS

Question: What about the “IFN-γ production by T cells” value ([2]; listed as soluble phosphatidylserine (PS)) of the same compound?
Answer: dampen IFN-γ production

Question: What about the “IL-10+, FOXP3+ T regulatory population, % of all T cells” value ([2]; presence of soluble MOG antigen) of the same compound?
Answer: 10%

Question: And the “Maximum Score” value ([3]; (+/−))?
Answer: 0.8 (+/−0.2)

Question: What about the “Disease Incidence” value ([3]; (affected/total animals)) of the same compound?
Answer: 83% (10/12)
